The source of these data is US12673918B2, “Small molecule RPN13 inhibitors with antitumor properties” (The Johns Hopkins University, priority 2019, dated 2026).

Where two headings read alike, the source gives them in different places.

One data set deals with RPN13 (Homo sapiens, UniProt Q16186). The experiment in a line: Competition with RA190B labeling of 42 kDa cellular target in cell lysate. It is filed as binding. On the set-up: endogenous in cells; running text says HeLa) and OV2008 cell lysates. To be noted: cell lysate pre-incubated with compounds (20 μM), then RA190B; HRP-streptavidin blot. As to the method:
FIG. 1B illustrates precleared ES2 cell lysate incubated with compounds (20 μM) or vehicle (DMSO, 1:100) for 45 min and then with RA190B (5 μM) for 45 min at 4° C. by Western blot analysis. Samples were subjected to SDS-PAGE, transfer to PVDF membrane, and after probing with HRP-streptavidin, binding was detected using chemiluminescence.
FIG. 2B illustrates precleared OV2008 cell lysate incubated with compounds (20 μM) or vehicle (DMSO, 1:100) for 45 min and then with RA190B (10 μM) for 45 min at 4° C. by Western blot analysis. Samples were subjected to SDS-PAGE, transfer to PVDF membrane, and binding of HRP-streptavidin, detected using chemiluminescence.
Biotinylated RA190 (RA190B, FIG. 1A) is utilized as a probe to detect covalent binding to its cellular target(s) in detergent lysates of cancer cell lines (10). […] Here, the ability of compounds (FIG. 1A) to compete with RA190B binding to its 42 kDa cellular target (FIG. 1B) were examined. Compounds, including bortezomib as a negative control, were incubated with HeLa cell lysate and then RA190B added.
Biotin labeling Assay: Clarified cell lysate in MPER buffer was pretreated with streptavidin magna beads for 45 min at 4° C. to deplete non-specific biotinylated proteins in the cell lysate. The beads were separated and 40 μL of the pre-cleared cell lysate was incubated with compounds (20 μM) for 45 min at 4° C., and then treated with RA183B, RA190B, or RA413SB (10 μM) for 45 min at 4° C. Next, the samples were mixed with Laemmli sample buffer (BioRad) and boiled for 5 min. […] (24 V). The membrane was blocked with 5% BSA in PBST for 1 hr at RT and washed for 20 minutes (3× with PBST). Then the membrane was probed with HRP-streptavidin (1:10,000 in PBST) for 1 hr at RT, washed for 30 min (3× with PBST), and developed using HyGLO chemiluminescent detection reagent (Denville) for biotin detection.

Data set [1] has as its system high molecular weight polyubiquitinated proteins. The experiment in a line: Western blot of polyubiquitinated proteins, ES2 cells. Format: cell-based, human. To be noted: 1 μM, 4 hr. The procedure:
FIG. 1C illustrates ES2 cells treated with compounds (1 μM, 4 hr), lysed and the samples probed with ubiquitin or actin-specific antibody by Western blot analysis.
Antibodies, reagents, and Western Blot Analyses: Cell lysate (10-20 μg total protein) prepared in MPER (Pierce) from each sample was subjected to SDS-PAGE, transferred to PVDF membranes and analyzed by Western blot using antibodies specific Bax (#2772, Cell Signaling), ubiquitin (P4D1, sc-8017, Santa Cruz), PARP (#9542, BD Pharmingen), actin (#66009, Protein Tech Group), Tubulin(#66031, Protein Tech Group), ADRM1/Rpn13 (D9Z1U, #12019, Cell Signaling), Lys48-linkled ubiquitin (Apu 2, 05-1307, (Millipore), Annexin V (#559763, BD pharmingen), caspase-3 (51-68655X, BD Pharmingen) at the dilutions recommended by the manufacturers, and for secondary antibodies either peroxidase-linked anti-mouse IgG or anti-rabbit IgG (GE Healthcare UK Ltd) were utilized, HRP conjugated streptavidin (N100, Thermo Fisher) at the recommended dilution (1:5000). MitoTracker Red CMXRos reagent was purchased from ThermoFisher #M7512. The blots were developed using HyGLO chemiluminescent detection reagent (Denville).

The test system of another data set is SKOV3 cells. As to the kind of experiment: XTT cytotoxicity assay, SKOV3. It is filed as cell-based, human. An excerpt: (§1) The impact of substituents of the aromatic ring on the potency of molecules was also examined. The presence of either an electron withdrawing group (EWG) or an electron donating group (EDG) influences the reactivity of a Michael acceptor towards the target protein but can also impact specificity/selectivity.

The subject of the next data set is HeLa cells. As to the kind of experiment: XTT cytotoxicity assay, HeLa. Format: cell-based, human.
Description: as §1

For a further data set, the system named is SKOV3. The experiment in a line: MTT cytotoxicity assay, SKOV3. To be noted: Homo sapiens, SK-OV-3, read-out: cytotoxicity IC50 SKOV3.
A further data set concerns HCC1395. As to the kind of experiment: MTT cytotoxicity assay, HCC1395. The conditions noted are these: Homo sapiens, HCC1395, read-out: cytotoxicity IC50 HCC1395.
Another data set relates to ES2. As to the kind of experiment: MTT cytotoxicity assay, ES2. To be noted: read-out: cytotoxicity IC50 ES2; Tables 3A/4B/4C; MTT assay.
The test system of the next data set is MCF7. As to the kind of experiment: MTT cytotoxicity assay, MCF7. To be noted: read-out: cytotoxicity IC50 MCF7, Tables 3A/4B/4C.
The subject of the next data set is ID8-vegf. The experiment in a line: MTT cytotoxicity assay, ID8-vegf. The conditions noted are these: read-out: cytotoxicity IC50 ID8-vegf, Tables 3A/4B/4C.
A further data set deals with OVCAR3. The experiment in a line: MTT cytotoxicity assay, OVCAR3. The conditions noted are these: read-out: cytotoxicity IC50 OVCAR3; Tables 3A/4B/4C; MTT assay.
Another data set concerns DLD-Seckle. The experiment in a line: MTT cytotoxicity assay, DLD-Seckle. The conditions noted are these: read-out: cytotoxicity IC50 DLD-Seckle.
The test system of a further data set is BR5-Luc. The experiment in a line: MTT cytotoxicity assay, BR5-Luc. To be noted: read-out: cytotoxicity IC50 BR5-Luc, Tables 3A/4B/4C, BRCA2 − VE.
The next data set relates to BR5-FvB1. The experiment in a line: MTT cytotoxicity assay, BR5-FvB1. To be noted: Mus musculus, read-out: cytotoxicity IC50 BR5-FvB1.
For the next data set, the system named is DLD-BRCA2-Ve. As to the kind of experiment: MTT cytotoxicity assay, DLD-BRCA2-Ve. To be noted: read-out: cytotoxicity IC50 DLD-BRCA2-Ve.
Data set [2] in a line: MTT cytotoxicity assay, RPE1. To be noted: human, RPE1 cells.
Description: (§2) Cell lines and cytotoxicity assays: All cell lines were obtained from the American Type Culture Collection (ATCC) and cultured in the specified medium supplemented with 10% fetal bovine serum, 100 IU/mL penicillin, and 100 μg/mL streptomycin at 37° C. in a humidified 5% CO2/95% air incubator. […] To assess drug cytotoxicity, cells were seeded at 2,500 cells/well (10,000 cells/well for MM lines) in 100 μL medium in 96-well plate and after 24 treated with compounds for 72 h, incubated according to the manufacturer's protocol with the Thiazolyl Blue Tetrazolium Bromide (Sigma, M2128) and A570 measured using a Benchmark Plus microplate spectrophotometer (BIO-RAD). IC50 data was analyzed by Graphpad Prism software. In the chirality studies the cells were treated with compounds for 48 h, and the cells were incubated and measured via the preceeding protocols.
In a further data set the test system is DLD1. As to the kind of experiment: MTT cytotoxicity assay, DLD1. The conditions noted are these: Homo sapiens, DLD-1, read-out: cytotoxicity IC50 DLD1.
The test system of a further data set is RPE1-ATMKO. As to the kind of experiment: MTT cytotoxicity assay, RPE1-ATMKO. To be noted: read-out: cytotoxicity IC50 RPE1-ATMKO.
The next data set has as its system C2KmFvB1. As to the kind of experiment: MTT cytotoxicity assay, C2KmFvB1. The conditions noted are these: read-out: cytotoxicity IC50 C2KmFvB1, Tables 3A/4B/4C, BRCA2 + Ve.
The test system of data set [3] is VU93. As to the kind of experiment: MTT cytotoxicity assay, VU93. The conditions noted are these: read-out: cytotoxicity IC50 VU93, Tables 3A/4B/4C.
Data set [4] relates to VU93.
For a further data set, the system named is OV2008. As to the kind of experiment: MTT cytotoxicity assay, OV2008. The conditions noted are these: read-out: cytotoxicity IC50 OV2008.
The next data set concerns TOV21G. As to the kind of experiment: MTT cytotoxicity assay, TOV21G. The conditions noted are these: read-out: cytotoxicity IC50 TOV21G; Tables 3A/4B/4C; MTT assay.
Another data set has as its system SSC90. The conditions noted are these: human.
The test system of the next data set is HeLa. The conditions noted are these: human.
The test system of another data set is FaDu. The experiment in a line: cells. The conditions noted are these: Homo sapiens, read-out: cytotoxicity IC50 FaDu.
Where [5] appears, read: Table 1, XTT assay, read-out: IC50 SKOV3.
Setting [6] is: Table 1, XTT assay, read-out: IC50 HeLa.

Chain of RPN13 (Q16186 whole entry): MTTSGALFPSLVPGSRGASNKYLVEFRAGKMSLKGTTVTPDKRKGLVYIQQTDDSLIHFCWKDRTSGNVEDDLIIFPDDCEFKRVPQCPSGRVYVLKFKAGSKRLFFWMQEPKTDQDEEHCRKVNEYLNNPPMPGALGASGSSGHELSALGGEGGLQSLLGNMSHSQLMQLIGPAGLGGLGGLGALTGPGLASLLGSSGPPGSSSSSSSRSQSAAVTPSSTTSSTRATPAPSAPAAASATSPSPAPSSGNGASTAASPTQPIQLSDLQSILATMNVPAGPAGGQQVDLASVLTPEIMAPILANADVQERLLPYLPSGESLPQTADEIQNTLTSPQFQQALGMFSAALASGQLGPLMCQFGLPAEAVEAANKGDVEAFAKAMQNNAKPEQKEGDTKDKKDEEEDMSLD
Description for BR5-FvB1: as §2
Description for DLD-BRCA2-Ve: as §2
Description for DLD-Seckle: as §2
Description for DLD1: as §2
Description for OV2008: as §2
Description for RPE1-ATMKO: as §2

As to `Cl.NC(Cc1ccccc1)C(=O)N1CC(=CC=Cc2ccccc2)C(=O)C(=CC=Cc2ccccc2)C1` (stereo not shown) [RA181C], at RPN13, the “competition with RA190B binding to 42 kDa cellular target” value (“competition with RA190B binding” below) is on record as “failed to compete binding by RA190B”. For the same compound, in data set [1], the “accumulation of high molecular weight polyubiquitinated proteins” value (“accumulation” below) was “only minimal accumulation of polyubiquitinated proteins”. In addition, the IC50 with SKOV3 cells (setting [5]) and with HeLa cells (setting [6]) was greater than 2500 nM in each case.

With `CC1/C(=C\c2ccc(F)cc2)C(=O)/C(=C/c2ccc(F)cc2)CN1C(=O)[C@@H](N)Cc1ccccc1` (mixture of isomers) [RA462], the IC50 in the data set on SKOV3 came out at 112 nM; with HCC1395, 250 nM; in the data set with ES2, 96 nM; with MCF7, 750 nM; in the data set on ID8-vegf, 123 nM; in the data set on OVCAR3 it was 105 nM.

Regarding `Cl.NC(Cc1ccccc1)C(=O)N1CC(=Cc2ccccc2)C(=O)C(=Cc2ccccc2)C1` (stereo not shown) [RA181], at RPN13, the “competition with RA190B binding” value was “competed labeling by RA190B to a greater extent”. Also, the “accumulation” value in data set [1] is recorded as “rapid accumulation of high molecular weight polyubiquitinated proteins”. In addition, the IC50 in the data set on SKOV3 cells (setting [5]) came to 89 nM; with HeLa cells (setting [6]), 63 nM.

With `O=C(c1cc(Cc2n[nH]c(=O)c3ccccc23)ccc1F)N1CCN(C(=O)C2CC2)CC1` [OLA, olaparib, reference compound], the IC50 in the data set with DLD-Seckle was determined as 1.7 nM; in the data set on BR5-Luc, 500 nM; in the data set on BR5-FvB1 it was 30 nM; in the data set on HCC1395, 750 nM; in the data set on DLD-BRCA2-Ve, 2.5 nM; in data set [2] it was 23200 nM. For the same compound, the IC50 in the data set on DLD1 amounted to 23000 nM; with RPE1-ATMKO, 2.6 nM; in the data set with C2KmFvB1, 7960 nM; in the data set with VU93 [3] it was 30 nM.

In the case of `CC1/C(=C\c2ccc([N+](=O)[O-])cc2)C(=O)/C(=C/c2ccc([N+](=O)[O-])cc2)CN1C(=O)[C@@H](N)Cc1ccccc1` (mixture of isomers) [RA413], the IC50 is 86 nM with SKOV3; 625 nM in the data set on VU93 [4]; 150 nM in the data set on OV2008; 42 nM in the data set with TOV21G; 312 nM in the data set on SSC90; 96 nM in the data set with HeLa. Besides, the IC50 was 192 nM with ID8-vegf and 300 nM in the data set with FaDu.

Turning to `Cl.NC(Cc1ccccc1)C(=O)N1C2CCC1C(=Cc1ccc(Cl)c(Cl)c1)C(=O)C2=Cc1ccc(Cl)c(Cl)c1` (stereo not shown) [RA338], at RPN13, the “competition with RA190B binding” value is “competed labeling by RA190B to a greater extent”. In addition, the “accumulation” value in data set [1] is on record as “rapid accumulation of high molecular weight polyubiquitinated proteins”. Also, the IC50 in the data set with SKOV3 cells (Table 2, read-out: IC50 SKOV3 (bridge compounds)) came to 81 nM; in the data set with HeLa cells (Table 2, read-out: IC50 HeLa (bridge compounds)), 66 nM.

Take `CC1/C(=C\c2ccccc2F)C(=O)/C(=C/c2ccccc2F)CN1C(=O)[C@@H](N)Cc1ccccc1` (mixture of isomers) [RA467]: the IC50 in the data set on SKOV3 was 126 nM; with HCC1395, 250 nM; in the data set with ES2, 112 nM; in the data set on DLD-BRCA2-Ve, 502 nM; in the data set on MCF7, 750 nM; in the data set on DLD1, 474 nM. In addition, the IC50 in the data set with ID8-vegf was 167 nM; in the data set on OVCAR3 it was 120 nM.

For `CC1(C)CN(C(=O)[C@@H](N)Cc2ccccc2)C/C(=C\c2ccc(Cl)c(Cl)c2)C1=O` [RA190H], the “competition with RA190B binding” value on RPN13 is recorded as “competed labeling by RA190B to a greater extent”. Moreover, the “accumulation” value in data set [1] was “only weakly caused an accumulation of high molecular weight polyubiquitinated proteins”. Also, the IC50 in the data set on HeLa cells (Homo sapiens, HeLa, Table 1, XTT assay, read-out: IC50 HeLa) stood at 562 nM. Moreover, the “fold decreased potency compared to RA190” value in the data set on HeLa cells (cytotoxicity, Table 1 cell lines (HeLa, SKOV3)) was 6 fold.

As for `CC[C@]1(O)C[C@H]2CN(CCc3c([nH]c4ccccc34)[C@@](C(=O)OC)(c3cc4c(cc3OC)N(C=O)[C@H]3[C@@](O)(C(=O)OC)[C@H](OC(C)=O)[C@]5(CC)C=CCN6CC[C@]43[C@@H]65)C2)C1` [Vin, Vincristine], in the data set on C2KmFvB1, the IC50 came out at 13.4 nM.
